Laboratory results taken from PubChem BioAssay AID1963450 (Molecular Pharmacology Branch, DTP, NCI, 2024).
pIC50: −log10 of the molar value.

Test system: 556581-035-R-J1-PDC complex spheroid growth
Test: Anticancer human tumor 556581-035-R-J1-PDC patient-derived ovarian carcinoma cell line growth inhibition [Asc]
Details: for pIC50: curve of first compound; for viability, T/C: stronger effect = lower value
Outline: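 Complex solid-tumor spheroids incorporating human endothelial and mesenchymal stem cells received single agents or combinations over half-log dilution ranges anchored to clinical Cmax.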

[1] = second compound 0.1 µM, first compound 0.0316 µM
[2] = second compound 0.1 µM, first compound 0.1 µM
[3] = second compound 0.1 µM, first compound 0.316 µM
[4] = second compound 0.1 µM, first compound 1 µM
[5] = second compound 0.1 µM, first compound 3.16 µM
[6] = second compound 0.1 µM, first compound 10 µM
[7] = second compound 0.316 µM, first compound 0.0316 µM
[8] = second compound 0.316 µM, first compound 0.1 µM
[9] = second compound 0.316 µM, first compound 0.316 µM
[10] = second compound 0.316 µM, first compound 1 µM
[11] = second compound 0.316 µM, first compound 3.16 µM
[12] = second compound 0.316 µM, first compound 10 µM
[13] = second compound 1 µM, first compound 0.0316 µM
[14] = second compound 1 µM, first compound 0.1 µM
[15] = second compound 1 µM, first compound 0.316 µM
[16] = second compound 1 µM, first compound 1 µM
[17] = second compound 1 µM, first compound 3.16 µM
[18] = second compound 1 µM, first compound 10 µM
[19] = second compound 0.01 µM, first compound 0.0316 µM
[20] = second compound 0.01 µM, first compound 0.1 µM
[21] = second compound 0.01 µM, first compound 0.316 µM
[22] = second compound 0.01 µM, first compound 1 µM
[23] = second compound 0.0316 µM, first compound 0.0316 µM
[24] = second compound 0.0316 µM, first compound 0.1 µM
[25] = second compound 0.0316 µM, first compound 0.316 µM
[26] = second compound 0.0316 µM, first compound 1 µM
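Further: spheroids exposed to agents for 7 days before viability read.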

SMILES	pIC50 (second compound 0.1 µM)	pIC50 (second compound 0.316 µM)	pIC50 (second compound 1 µM)	viability, T/C [1] [%]	viability, T/C [2] [%]	viability, T/C [3] [%]	viability, T/C [4] [%]	viability, T/C [5] [%]	viability, T/C [6] [%]	viability, T/C [7] [%]	viability, T/C [8] [%]	viability, T/C [9] [%]	viability, T/C [10] [%]	viability, T/C [11] [%]	viability, T/C [12] [%]	viability, T/C [13] [%]	viability, T/C [14] [%]	viability, T/C [15] [%]	viability, T/C [16] [%]	viability, T/C [17] [%]	other results
O=C(c1cc(Cc2n[nH]c(=O)c3ccccc23)ccc1F)N1CCN(C(=O)C2CC2)CC1 + Cc1c(S(C)(=O)=O)c(-c2cc(F)cc(N3CCN(c4ccc(NS(=O)(=O)c5ccc(NC(CCN6CCC(C(=O)OCCCP(=O)(O)O)CC6)CSc6ccccc6)c(S(=O)(=O)C(F)(F)F)c5)cc4)CC3)c2)c(-c2ccc(Cl)cc2)n1C(C)C	< 5.00	< 5.00	< 5.00	87.3	81.3	92.9	96	82.3	77.2	73.6	90.2	73.3	89.8	83.4	66.8	70.8	69	73.4	78	66.3	pIC50 (second compound 3.16 µM): < 5.00; pIC50 (second compound 10 µM): < 5.00; viability, T/C [18]: 66.4%; viability, T/C (second compound 3.16 µM, first compound 0.0316 µM): 63.4%; viability, T/C (second compound 3.16 µM, first compound 0.1 µM): 75.6%; viability, T/C (second compound 3.16 µM, first compound 0.316 µM): 67.6%; viability, T/C (second compound 3.16 µM, first compound 1 µM): 65.8%; viability, T/C (second compound 3.16 µM, first compound 3.16 µM): 66.9%; viability, T/C (second compound 3.16 µM, first compound 10 µM): 57.9%; viability, T/C (second compound 10 µM, first compound 0.0316 µM): 68%; viability, T/C (second compound 10 µM, first compound 0.1 µM): 80.7%; viability, T/C (second compound 10 µM, first compound 0.316 µM): 60.6%; viability, T/C (second compound 10 µM, first compound 1 µM): 54.2%; viability, T/C (second compound 10 µM, first compound 3.16 µM): 57.1%; viability, T/C (second compound 10 µM, first compound 10 µM): 77.5%
C=C(F)C(=O)N1CCN(c2nc(OCC3CCCN3C)nc3c2CCN(c2cccc4cccc(Cl)c24)C3)CC1CC#N (stereo not given) + CNC(C)C(=O)NC1CN(S(=O)(=O)c2cccc(S(=O)(=O)N3CCC4CCC(C(=O)NC(c5ccccc5)c5ccccc5)N4C(=O)C(NC(=O)C(C)NC)C3)c2)CCC2CCC(C(=O)NC(c3ccccc3)c3ccccc3)N2C1=O	5.82	5.97	5.96	66.5	77.1	79.5	58.4	29.5	0.17	78.7	75.1	63.7	56	20	1.79	66.5	62.7	62.3	52.3	24.4	pIC50 (second compound 0.01 µM): 5.58; pIC50 (second compound 0.0316 µM): 5.73; viability, T/C [19]: 85.3%; viability, T/C [20]: 85%; viability, T/C [21]: 83%; viability, T/C [22]: 86.6%; viability, T/C (second compound 0.01 µM, first compound 3.16 µM): 43.2%; viability, T/C (second compound 0.01 µM, first compound 10 µM): 0.21%; viability, T/C [23]: 83.9%; viability, T/C [24]: 86.8%; viability, T/C [25]: 86.5%; viability, T/C [26]: 72%; viability, T/C (second compound 0.0316 µM, first compound 3.16 µM): 31.6%; viability, T/C (second compound 0.0316 µM, first compound 10 µM): 0.18%; viability, T/C [18]: 2.63%
O=C(c1ccc(F)c(F)c1Nc1ccc(I)cc1F)N1CC(O)([C@@H]2CCCCN2)C1 + CNC(C)C(=O)NC1CN(S(=O)(=O)c2cccc(S(=O)(=O)N3CCC4CCC(C(=O)NC(c5ccccc5)c5ccccc5)N4C(=O)C(NC(=O)C(C)NC)C3)c2)CCC2CCC(C(=O)NC(c3ccccc3)c3ccccc3)N2C1=O	7.04	6.74	6.92	59.7	50.8	27.1	12.7	–	–	91.7	66.3	33.7	15.2	–	–	74	53.6	24.6	11.2	–	pIC50 (second compound 0.01 µM): 6.66; pIC50 (second compound 0.0316 µM): 6.73; viability, T/C (second compound 0.01 µM, first compound 0.00316 µM): 68.6%; viability, T/C (second compound 0.01 µM, first compound 0.01 µM): 71.7%; viability, T/C [19]: 87.2%; viability, T/C [20]: 83.6%; viability, T/C [21]: 37%; viability, T/C [22]: 10.6%; viability, T/C (second compound 0.0316 µM, first compound 0.00316 µM): 86.4%; viability, T/C (second compound 0.0316 µM, first compound 0.01 µM): 72.7%; viability, T/C [23]: 84.2%; viability, T/C [24]: 71.9%; viability, T/C [25]: 31.2%; viability, T/C [26]: 13.3%; viability, T/C (second compound 0.1 µM, first compound 0.00316 µM): 68.3%; viability, T/C (second compound 0.1 µM, first compound 0.01 µM): 64.5%; viability, T/C (second compound 0.316 µM, first compound 0.00316 µM): 73.9%; viability, T/C (second compound 0.316 µM, first compound 0.01 µM): 68.8%; viability, T/C (second compound 1 µM, first compound 0.00316 µM): 70.9%; viability, T/C (second compound 1 µM, first compound 0.01 µM): 81.4%
